Where “and” joins values, the source holds several entries; their conditions need not be identical. Equal entries are not always repeated. Results filed as inconclusive are left out.

The subject of this assay is BDF1 mice, colon carcinoma 38 sc, T/C %. Nature of the assay: NCI In Vivo Anticancer Drug Screen. Data for tumor model Colon Carcinoma 38 (subcutaneous) in B6D2F1 (BDF1) mice. The following applies: endpoint: median tumor weight (est.), higher = larger tumour. The gist of the method: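 Transplantable tumor in mice; compound-treated vs vehicle-dosed controls. Measured survival or tumor size; value = T ÷ C.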

Where [1] appears, read: dose: 25.0 mg/kg/injection, schedule: Q07DX002 (ip), vehicle: saline with Tween-80.
Setting [2] is: dose: 100.0 mg/kg/injection, schedule: Q07DX002 (ip), vehicle: saline with Tween-80.
Setting [3] is: dose: 200.0 mg/kg/injection, schedule: Q07DX002 (ip), vehicle: saline with Tween-80.

Take `O=C1OC(=O)[C@H]2[C@@H]1[C@H]1C=C[C@@H]2OC1=O`: the T/C is 59 % of control (dose: 25.0 mg/kg/injection, schedule: Q07DX002 (ip), vehicle: suspension in saline); 65 % of control (dose: 50.0 mg/kg/injection, schedule: Q07DX002 (ip), vehicle: suspension in saline); 44 % of control (dose: 100.0 mg/kg/injection, schedule: Q07DX002 (ip), vehicle: suspension in saline); 62 % of control (dose: 200.0 mg/kg/injection, schedule: Q07DX002 (ip), vehicle: suspension in saline); 71 % of control (dose: 400.0 mg/kg/injection, schedule: Q07DX002 (ip), vehicle: suspension in saline); 97 % of control (dose: 800.0 mg/kg/injection, schedule: Q07DX002 (ip), vehicle: suspension in saline).

With `COc1cc2c3c(cccc3c1)C(=O)N(CCN(C)C)C2=O`, the T/C is, setting by setting: (dose: 10.0 mg/kg/injection, schedule: Q07DX002 (ip), vehicle: saline with Tween-80) 86 % of control and 103 % of control; (dose: 40.0 mg/kg/injection, schedule: Q07DX002 (ip), vehicle: saline with Tween-80) 73 % of control and 92 % of control; (dose: 80.0 mg/kg/injection, schedule: Q07DX002 (ip), vehicle: saline with Tween-80) 72 % of control; (dose: 160.0 mg/kg/injection, schedule: Q07DX002 (ip), vehicle: saline with Tween-80) 73 % of control.

With `O=C(O)Cc1cccc2c(=O)cc(-c3ccccc3)oc12`, the T/C is, setting by setting: (dose: 47.3 mg/kg/injection, schedule: Q03HX004 (ip), vehicle: clinical formulation) 124 % of control; (dose: 50.0 mg/kg/injection, schedule: Q07DX002 (ip), vehicle: Klucel (hydroxypropylcellulose) (HPC)) 79 % of control; (dose: 50.0 mg/kg/injection, schedule: Q07DX002 (ip), vehicle: sodium bicarbonate) 46 % of control; (dose: 63.0 mg/kg/injection, schedule: Q03HX004 (ip), vehicle: clinical formulation) 89 % of control; (dose: 63.0 mg/kg/injection, schedule: Q07DX002 (ip), vehicle: sodium bicarbonate) 70 % of control; (dose: 63.0 mg/kg/injection, schedule: Q07DX002 (iv), vehicle: sodium bicarbonate) 120 % of control. Further, the T/C (dose: 84.0 mg/kg/injection, schedule: Q03HX004 (ip), vehicle: clinical formulation) was 19 % of control; the T/C (dose: 84.0 mg/kg/injection, schedule: Q06HX002 (ip), vehicle: clinical formulation) was 80 % of control; the T/C (dose: 84.0 mg/kg/injection, schedule: Q07DX002 (ip), vehicle: saline) was 103 % of control; the T/C (dose: 84.0 mg/kg/injection, schedule: Q07DX002 (ip), vehicle: sodium bicarbonate) was 46 % of control; the T/C (dose: 84.0 mg/kg/injection, schedule: Q07DX002 (iv), vehicle: sodium bicarbonate) is 122 % of control; the T/C (dose: 100.0 mg/kg/injection, schedule: Q07DX002 (ip), vehicle: Klucel (hydroxypropylcellulose) (HPC)) is 4 % of control. In addition, the T/C runs as follows: (dose: 100.0 mg/kg/injection, schedule: Q07DX002 (ip), vehicle: sodium bicarbonate) 73 % of control; (dose: 112.0 mg/kg/injection, schedule: Q01DX001 (ip), vehicle: clinical formulation) 72 % of control; (dose: 112.0 mg/kg/injection, schedule: Q06HX002 (ip), vehicle: clinical formulation) 29 % of control; (dose: 112.0 mg/kg/injection, schedule: Q07DX002 (ip), vehicle: clinical formulation) 44 % of control; (dose: 112.0 mg/kg/injection, schedule: Q07DX002 (ip), vehicle: saline) 13 % of control; (dose: 112.0 mg/kg/injection, schedule: Q07DX002 (ip), vehicle: sodium bicarbonate) 90 % of control. For the same molecule, the T/C by setting is: (dose: 112.0 mg/kg/injection, schedule: Q07DX002 (iv), vehicle: sodium bicarbonate) 100 % of control; (dose: 150.0 mg/kg/injection, schedule: Q01DX001 (ip), vehicle: clinical formulation) 22 % of control; (dose: 150.0 mg/kg/injection, schedule: Q07DX002 (ip), vehicle: saline) 2 % of control; (dose: 150.0 mg/kg/injection, schedule: Q07DX002 (ip), vehicle: sodium bicarbonate) 67 % of control; (dose: 150.0 mg/kg/injection, schedule: Q07DX002 (iv), vehicle: sodium bicarbonate) 15 % of control; (dose: 200.0 mg/kg/injection, schedule: Q07DX002 (ip), vehicle: sodium bicarbonate) 42 % of control. Besides, the T/C (dose: 267.0 mg/kg/injection, schedule: Q07DX002 (ip), vehicle: saline) is 1 % of control.

As to `CC(C#N)(C#N)N=Nc1ccc(Cl)cc1Cl`, the T/C by setting is: under setting [1], 86 % of control and 101 % of control; (dose: 50.0 mg/kg/injection, schedule: Q07DX002 (ip), vehicle: saline with Tween-80) 50 % of control and 69 % of control; under setting [2], 66 % of control and 73 % of control; under setting [3], 58 % of control and 64 % of control; (dose: 800.0 mg/kg/injection, schedule: Q07DX002 (ip), vehicle: saline with Tween-80) 63 % of control and 78 % of control.

On to `CC(=O)OCC12CCC(C)=CC1OC1C(=O)CC2(C)C12CO2` (configuration not stated), for which the T/C is, setting by setting: (dose: 0.25 mg/kg/injection, schedule: Q07DX002 (ip), vehicle: saline) 111 % of control; (dose: 10.0 mg/kg/injection, schedule: Q07DX002 (ip), vehicle: saline) 155 % of control; (dose: 20.0 mg/kg/injection, schedule: Q07DX002 (ip), vehicle: saline) 119 % of control.

For the molecule `COC1=C(OC)C(=O)C(SC/C=C(\C)CCCC(C)CCCC(C)CCCC(C)C)=CC1=O` (configuration not stated), the T/C runs as follows: under setting [1], 55 % of control; under setting [2], 116 % of control; under setting [3], 86 % of control; (dose: 400.0 mg/kg/injection, schedule: Q07DX002 (ip), vehicle: saline with Tween-80) 102 % of control.
